Columns and labels:
[1] = test system: 3MR mice with bleomycin induced lung injury; experiment: Bleomycin induced lung injury model; type: in vivo, mouse; conditions: for lung compliance (static and dynamic) / lung elastance: 21 days post-bleomycin, Nutlin-3A data not statistically significant
Protocol: One animal model study assessed the effect of clearance of senescence cells in the transgenic mouse strain 3MR that has bleomycin induced lung injury. […] Control mice were administered saline. The day following bleomycin treatment, ganciclovir (GCV) (25 mg/kg in PBS) was administered. 3MR mice were treated via intraperitoneal injection with ganciclovir for 5 consecutive days, followed by 5 days of rest, followed by a second treatment cycle of 5 consecutive days. Untreated mice received an equal volume of vehicle. At 7, 14, and 21 days post-bleomycin treatment, lung function was assessed by monitoring oxygen saturation using the MouseSTAT PhysioSuite pulse oximeter (Kent Scientific). Animals were anesthetized with isoflurane (1.5%) and a toe clip was applied. Mice were monitored for 30 seconds and the average peripheral capillary oxygen saturation (SpO2) measurement over this duration was calculated. […] At 21 days post-bleomycin treatment, airway hyper-reactivity (AHR) of mice was examined. AHR of mice was measured by methacholine challenge while other parameters of lung function (airway mechanics, lung volume and lung compliance) were determined using a SCIREQ flexiVent ventilator. While under ketamine/xylazine anesthesia and subjected to cannulation of the trachea via a tracheostomy (19Fr blunt Luer cannula), airway resistance (elastance) and compliance of mice were assessed at baseline and in response to increasing concentrations of methacholine (0 to 50 mg/ml in PBS) delivered via nebulization (AeroNeb) as described in Aravamudan et al. (Am. J. Physiol. Lung Cell. Mol. Physiol. (2012) 303:L669-L6810). Animals were maintained at 37° C., and while under muscle paralysis (pancuronium); airway function was measured by using the FlexiVent ventilator and lung mechanics system (SCIREQ, Montreal, Quebec, Canada), which was housed on Stabile 8. […] As shown in FIGS. 60B-C, bleomycin administration reduced static compliance and (dynamic) compliance in vehicle treated mice. […] Mice were euthanized by i.p injection of pentobarbital. Bronchoalveolar lavage (BAL) fluids and lungs is obtained and analyzed. Hydroxyproline content of lungs is measured as described in Christensen et al. (1999, Am. J. Pathol. 155:1773-1779), and quantitative histopathology is performed. RNA is extracted from lung tissue to measure senescence cell markers by qRT-PCR in treated and control mice.

[2] = test system: senescent mouse embryonic fibroblasts (MEF); experiment: Cell count survival assay of Nutlin-3a on irradiation-induced senescent MEFs; type: cell-based; conditions: 10 Gy irradiated MEF; Nutlin-3a 0, 2.5, 10 μM for 9 days
Protocol: Foreskin fibroblast cell lines HCA2 and BJ, lung fibroblast cell line IMR90, and mouse embryonic fibroblasts were seeded in six-well plates and induced to senesce with 10 Gy of ionizing radiation (IR) or a 24 hr treatment with doxorubicin (Doxo). Senescent phenotype was allowed to develop for at least 7 days, at which point a cell count was made to determine the baseline number of cells. Nutlin-3a treatment was then initiated for a period of at least 9 days. Media alone or media with drug as appropriate was refreshed at least every three days. At the end of the assay time period, cells are counted. Each condition was seeded in three plate wells and counted independently. Initial cell count serves as a control to determine the induction of senescence, as compared to the last day count without nutlin treatment. Initial non-senescent cell count serves as a proxy to determine Nutlin-3a toxicity.
Foreskin fibroblast cell lines HCA2 and BJ, lung fibroblast cell line IMR90, and mouse embryonic fibroblasts were exposed to 10 Gy of ionizing radiation (IR) to induce senescence. […] Percent survival was calculated as [cell count on day 9 of Nutlin-3a treatment/initial cell count on first day of Nutlin-3a treatment].

[3] = test system: IL-6 in senescent IMR90 cells; experiment: IL-6 immunofluorescence and ELISA in irradiated senescent IMR90 cells treated with Nutlin-3a; type: cell-based, human
Protocol: Primary human fibroblast (IMR90) cells were induced to senesce by applying 10 Gy of irradiation. Seven days after irradiation (Day 0), cells were treated with 10 μM Nutlin-3a or vehicle (DMSO) for nine days (Day 9). The drug or vehicle was refreshed every three days. Drug/vehicle was removed at Day 9 and the cells were cultured for an additional three days (Day 12). Cells were then fixed with 4% paraformaldehyde and stained by immunofluorescence with a specific anti-IL-6 antibody (R&D, AF-206-NA). Cells were counterstained with DAPI for nuclear visualization. The percent IL-6 positive cells is illustrated in FIG. 12A. IL-6 positive cells were determined in an unbiased manner using CellProfiler software. Three different cultures were assessed. Non-senescent cells had no detectable cells IL-6 production while senescent cells were about 8% positive at day 9 after vehicle (DMSO) treatment (16 days after irradiation). […] At day 12, 3 days after Nutlin-3a was removed and 19 days after irradiation, IL-6 positive cells in the vehicle control were about 9% and Nutlin3a treated cells were less than 1% positive for IL-6.
In another experiment, IMR90 cells were induced to senesce by irradiation (10 Gy). Seven days after irradiation, cells were treated with 10 μM Nutlin-3a or vehicle (DMSO) for nine days (Day 9). The drug or vehicle was refreshed every three days. Drug/vehicle was removed at Day 9 and the cells were cultured for an additional six days. Conditioned media from the treated cells was collected, and IL-6 measurement by ELISA was performed (Perkin Elmer, AL223F). IL-6 levels in culture media were determined by ELISA using a kit according to manufacturer's instructions (AL223F, Perkin Elmer). Cells were fixed with 4% paraformaldehyde and stained by immunofluorescence with a specific anti-IL-6 antibody (R&D, AF-206-NA). The IL-6 level determined by ELISA was normalized to the number of cells in each well. The data are presented in FIG. 22C as a relative level of IL-6 in the treated cells compared to the level in non-senescent cells (NS). […]

[4] = test system: p16-3MR mice fed a high fat diet; experiment: High fat feeding-induced senescence in p16-3MR mice, SA-β-Gal staining of adipose tissue; type: in vivo, mouse; conditions: 25 mg/kg daily for five consecutive days; p=<0.004
Protocol: Groups of p16-3MR mice (n=6) were fed a high fat diet (60% fat) for four months mice or a regular chow diet. The presence of senescence cells was determined by measuring luminescence (i.e., p16 positive cells). […] Animals were then treated with ganciclovir or vehicle to determine if removal of senescent cells reduced the presence of senescent cells in adipose tissue. Groups of animals were treated with ganciclovir or vehicle. Ganciclovir (25 mg/kg) was administered daily for five consecutive days. The presence of senescent cells in perirenal, epididymal, or subcutaneous inguinal adipose tissue was detected by SA-β-Gal staining. Data were analyzed by ANOVA.

Row | Structure (SMILES) | lung compliance (static and dynamic) [1] | lung elastance [1] | cell survival of senescent MEF (percent survival) [2] | IL-6 level (ELISA), fold lower than DMSO treated senescent cells ([3]; 10 μM for 9 days, then up to 6 days without drug) | percent IL-6 positive cells ([3]; 10 μM, day 9 (16 days after irradiation)) | percent IL-6 positive cells ([3]; day 12, 3 days after drug removal) | peripheral capillary oxygen saturation (SpO2) ([1]; approached normal levels at 21 days post bleomycin) | presence of senescent cells in epididymal fat (SA-β-Gal) [4]
1 | COc1ccc(C2=N[C@@H](c3ccc(Cl)cc3)[C@@H](c3ccc(Cl)cc3)N2C(=O)N2CCNC(=O)C2)c(OC(C)C)c1 [Nutlin-3a] | increased lung compliance | reduced lung elastance | reduced cell survival | 5-9 fold | below 5% | less than 1% | – | –
2 | Nc1nc(O)c2ncn(COC(CO)CO)c2n1 [ganciclovir] | improved compliance values significantly | reduced lung elastance | – | – | – | – | higher SpO2 levels | significant reduction
